The target in one assay is CDK4 (Homo sapiens, UniProt P11802). Put plainly: CDK4 enzyme activity test in vitro. The class given is biochemical. The following applies: Caliper EZ Reader II conversion.
In assay [1] the test system is MDA-MB-468 cells. Put plainly: In vitro antiproliferative activity (MTT), MDA-MB-468. The class given is cell-based. The following applies: Homo sapiens, MDA-MB-468, 72 h, 3 days of incubation. How it is done: (§1) In Vitro Antiproliferative Activity of Compound 1. Experimental Procedure
(§2) (4) MDA-MB-231, MDA-MB-468 or EMT6 cells are taken out of a liquid nitrogen tank, immediately placed in a constant temperature water bath at 37° C. and melted by shaking, then the cells are poured into a culture flask. The culture solution (containing 10% of fetal bovine serum) is added for dilution. The diluted culture medium is transferred into a centrifuge tube, centrifuged at 1000 r/min for 5 minutes. The supernatant is discarded and fresh culture medium is added for blowing and mixing uniformly. The mixture is transferred into a culture bottle, and cultured in a culture box with a concentration of 5% CO2 at 37° C. When the cells are adhered to the wall and almost fully paved at the bottle bottom, the passage begins. A little amount of fresh culture medium (containing 10% of fetal calf serum) is added to terminate the digestion. The liquid in the culture bottle is poured out, and the culture bottle is washed twice with PBS. The fresh culture medium is added to blow and mix uniformly, and divided evenly into two culture bottles for continuing the culture.
(§3) (5) Cells in the logarithmic phase are taken, and the old culture medium are poured out. The trypsin solution is added for digestion for 3 minutes, and the fresh culture medium containing 10% of fetal bovine serum is added for terminating digestion. The solution is transferred into a centrifuge tube, centrifuged at 1000 r/min for 5 minutes, and the supernatant is discarded. The cells are counted by adding a medium to prepare into a cell suspension. After counting, cells are seeded in 96-well plates at a cell concentration of 5000-10000 cells per well. The 96-well plate with the spread cells is placed in a 5% CO2 incubator at 37° C. for a continuous culture for 24 hours. The drugs are diluted in gradient to 90μ mol/L, 30μ mol/L, 10μ mol/L, […], 0.37μ mol/L with medium and then added to 96-well plates at 100 μL per well, with three multiplex wells per concentration. The control group is added with medium containing solvent with the corresponding concentration, the zeroing hole is added with blank medium with the same volume, and the blank medium is placed in a culture box with 5% CO2 and 37° C. for 3 days of incubation with a replacement of the medium every two days. 20 μL of MTT (5 mg/mL) is added to each well. After mixing uniformly, the mixture is incubated in a 5% CO2 incubator at 37° C. for 4 hours in the absence of light. With a removement of the liquid in the 96-well plate and an addition of 150 μl of DMSO to each well, the mixture is placed on a micro-shaker and shaken to completely dissolve the crystals at the bottom. Subsequently, the 96-well plate is placed in an microplate reader for detection and the absorbance is measured at 490 nm.
(§4) Curve is drawn and inhibition rate of drug to cell and IC50 are calculated. Inhibition ratio=[(average OD value for control group-average OD value for experimental group)/(average OD value for control group-average OD value for blank control group)]×100%. 3. Experimental Results
(§5) The inhibitory activities of the compounds on MDA-MB-231, MDA-MB-468 and EMT6 cell lines are as follows: […]

For assay [2], the system named is MDA-MB-468 cells. The assay is described as follows: Cell cycle experiment (PI flow cytometry), MDA-MB-468. The class given is cell-based. The following applies: MDA-MB-468, 48 hours, compared with TNO155, Abemaciclib and their combination. How it is done: (§6) Cells are washed once with PBS and 1 mL of trypsin without EDTA (0.25%) is added. When cells change round and part of the cells are suspended, the digestion is terminated by adding PBS, subsequently, the cells are harvested and fixed in 70% ethanol (500 μL) at 4° C. for 24 hours. Cells are collected by washing with PBS and centrifuged at 1500 rpm for 5 minutes, then stained with PI/RNase in the dark at the room temperature for 30 minutes-60 minutes. After incubation, the cells are analyzed by flow cytometry. All experiments are performed 3 times.

For the next assay, the target named is T1, SHP2 (Homo sapiens, UniProt Q06124).
T1 sequence (Q06124 1-593): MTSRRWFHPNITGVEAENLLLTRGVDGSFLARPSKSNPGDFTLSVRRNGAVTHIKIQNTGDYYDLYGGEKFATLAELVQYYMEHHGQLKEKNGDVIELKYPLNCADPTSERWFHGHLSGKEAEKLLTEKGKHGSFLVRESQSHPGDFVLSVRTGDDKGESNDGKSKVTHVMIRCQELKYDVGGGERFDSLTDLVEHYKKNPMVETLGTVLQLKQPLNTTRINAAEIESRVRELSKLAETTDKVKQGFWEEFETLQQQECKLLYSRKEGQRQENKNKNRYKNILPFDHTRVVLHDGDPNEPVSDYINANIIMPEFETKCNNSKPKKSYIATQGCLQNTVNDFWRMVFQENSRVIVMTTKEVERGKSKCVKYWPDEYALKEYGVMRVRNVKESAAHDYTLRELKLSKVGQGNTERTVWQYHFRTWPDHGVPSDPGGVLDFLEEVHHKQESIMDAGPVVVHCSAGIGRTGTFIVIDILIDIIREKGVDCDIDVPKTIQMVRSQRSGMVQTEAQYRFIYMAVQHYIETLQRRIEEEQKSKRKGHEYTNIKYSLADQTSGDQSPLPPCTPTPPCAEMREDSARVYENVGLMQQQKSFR
Put plainly: SHP2 enzyme activity test in vitro.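 Further: IC50 derived by variable-slope curve fitting of percent inhibition of SHP2 enzymatic activity plotted against log compound concentration.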

The subject of another assay is SHP2 and CDK4/6. The assay is described as follows: In vitro enzyme activity and antiproliferative activity tests (summary statement).
In assay [3] the test system is MDA-MB-231 cells. Put plainly: In vitro antiproliferative activity (MTT), MDA-MB-231. The class given is cell-based. The following applies: Homo sapiens, MDA-MB-231, 72 h, 3 days of incubation. How it is done:
as §1, §2, §3, §4, §5

Assay [4] relates to MDA-MB-231 cells. The assay is described as follows: Cell cycle experiment (PI flow cytometry), MDA-MB-231. The class given is cell-based. The following applies: MDA-MB-231, 48 hours, compared with TNO155, Abemaciclib and their combination. On the procedure: as §6
For a further assay, the system named is EMT6 cells. Put plainly: In vitro antiproliferative activity (MTT), EMT6. The class given is cell-based. The following applies: Mus musculus, EMT6, 72 h, 3 days of incubation. On the procedure:
as §1, §2, §3, §4, §5

The term IC50 denotes the concentration at which inhibition is half-maximal.

Sequence of CDK4 (P11802 whole entry): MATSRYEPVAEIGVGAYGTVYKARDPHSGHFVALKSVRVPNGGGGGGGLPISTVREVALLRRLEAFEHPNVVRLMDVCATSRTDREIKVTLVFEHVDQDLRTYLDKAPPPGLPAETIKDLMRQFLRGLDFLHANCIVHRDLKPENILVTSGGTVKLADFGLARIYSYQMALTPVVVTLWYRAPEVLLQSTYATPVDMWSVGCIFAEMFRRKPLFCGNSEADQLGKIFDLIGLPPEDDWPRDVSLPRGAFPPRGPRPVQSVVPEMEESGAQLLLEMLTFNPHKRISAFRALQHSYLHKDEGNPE
Sequence of CDK4 (P30281 whole entry partner): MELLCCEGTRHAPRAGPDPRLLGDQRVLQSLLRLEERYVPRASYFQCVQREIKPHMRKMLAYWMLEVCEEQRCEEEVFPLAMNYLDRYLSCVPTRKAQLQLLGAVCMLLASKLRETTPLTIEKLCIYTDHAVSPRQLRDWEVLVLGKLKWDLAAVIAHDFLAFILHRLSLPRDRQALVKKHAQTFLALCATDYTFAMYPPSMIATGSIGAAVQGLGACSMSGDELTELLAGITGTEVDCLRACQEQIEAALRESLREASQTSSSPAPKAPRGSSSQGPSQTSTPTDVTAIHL

`Cc1nc2c(F)cc(-c3nc(Nc4nccc(Sc5cnc(N6CCC7(CC6)CO[C@@H](C)[C@H]7N)cn5)c4Cl)ncc3F)cc2n1C(C)C` [Compound 14]: the IC50 against CDK4 worked out at 19 nM; in the assay with MDA-MB-468 cells [1], 1.8 µM; against SHP2, 5 nM; with MDA-MB-231 cells [3], 6.4 µM; with EMT6 cells it was 0.6 µM. In addition, the G0/G1 phase arrest result with MDA-MB-468 cells [2] and in the assay on MDA-MB-231 cells [4] was “better cycle G0/G1 phase arrest” throughout. Moreover, the double-target inhibition activity entry in the assay on SHP2 and CDK4/6 is recorded as “better double-target inhibition activity”.

Source of the values: US12331058B2, “SHP2 and CDK4/6 dual-target inhibitory compound and pharmaceutical composition containing the same” (CHINA PHARMACEUTICAL UNIVERSITY, priority 2021, dated 2025).
